Experimental data reported in US20220202939A1, “PREPARATION FOR IMPROVING ACTIVITY AND/OR THERMAL STABILITY OF SUPEROXIDE DISMUTASE, AND APPLICATION THEREOF” (CHINA AGRICULTURAL UNIVERSITY, priority 2020, published 2022).

System: superoxide dismutase (SOD)
Assay: Influence of small-molecule substances on SOD enzyme activity and thermal stability at 80° C.
Type: biochemical
Conditions: experimental group 1: 100 μL SOD solution (1×10^−4 mol/L) + 100 μL substance solution (1×10^−3 mol/L); water bath 80° C., 4 hours, enzyme activity every 20 minutes; vs SOD blank control; FIG. 1
Description: SOD solution: Mr(SOD)=37.8 kDa, 37.8 mg of SOD was weighed and dissolved in 10 mL of phosphate buffer to obtain a stock solution of CSOD=1×10^−4 mol/L.
Experimental group 1: 100 μL of the SOD solution was taken out and added to each of […] 10 mL centrifuge tubes, and then 100 μL of the solution of each of the vitamin C, the vitamin p, the catechin, the quercetin, the myricetin, the kaempherol, the ellagic acid, and the ferulic acid was added to each of the […] centrifuge tubes. Another 100 μL of the SOD solution was taken out as blank control. The centrifuge tubes and the blank control were placed in a water bath at 80° C., incubated for 4 hours, and detected for enzyme activity every 20 minutes. […]

Molecule | activity of the SOD | thermal stability of the SOD
Cc1ncc(C[n+]2csc(CCO)c2C)c(N)n1 [Vb1, vitamin B1, reference compound] | fails to improve the activity and thermal stability of SOD enzymes | fails to improve the activity and thermal stability of SOD enzymes
O=c1oc2c(O)c(O)cc3c(=O)oc4c(O)c(O)cc1c4c23 [ellagic acid] | improve the activity of the SOD | significantly improve the thermal stability of the SOD
COc1cc(/C=C/C(=O)O)ccc1O [ferulic acid] | improve the activity of the SOD | significantly improve the thermal stability of the SOD
O=c1c(O)c(-c2ccc(O)cc2)oc2cc(O)cc(O)c12 [kaempherol] | improve the activity of the SOD | significantly improve the thermal stability of the SOD
O=c1c(O)c(-c2cc(O)c(O)c(O)c2)oc2cc(O)cc(O)c12 [myricetin] | improve the activity of the SOD | significantly improve the thermal stability of the SOD
O=c1c(O)c(-c2ccc(O)c(O)c2)oc2cc(O)cc(O)c12 [quercetin] | improve the activity of the SOD | significantly improve the thermal stability of the SOD
O=C1O[C@H]([C@@H](O)CO)C(O)=C1O [vitamin C] | improve the activity of the SOD | significantly improve the thermal stability of the SOD
catechin | improve the activity of the SOD | significantly improve the thermal stability of the SOD
vitamin P | improve the activity of the SOD | significantly improve the thermal stability of the SOD
